Results from ChEMBL document CHEMBL1201862, “PubChem BioAssay data set” (2004).
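Five compound concentrations were applied to cells in 96-well plates for 48 hours; endpoints were derived by simple linear interpolation of the resulting dose-response curve. GI50 marks 50% less growth.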 Calls of active or inactive are those of the source. No stated cut-off is given here; in the data, active = GI50 up to about 1.1 µM and inactive = higher.

Legend:
Assay in all cases: DTP human tumour cell line panel, 48 h
EKVX = test system: EKVX
MDA-MB-435 = test system: MDA-MB-435
ACHN = test system: ACHN
SN12C = test system: SN12C
HOP-62 = test system: HOP-62
COLO 205 = test system: COLO 205
A549 = test system: A549
OVCAR-8 = test system: OVCAR-8
K562 = test system: K562
NCI-H522 = test system: NCI-H522
DU-145 = test system: DU-145
NCI-H460 = test system: NCI-H460
CAKI-1 = test system: CAKI-1
UO-31 = test system: UO-31
RPMI-8226 = test system: RPMI-8226
MCF7 = test system: MCF7
SF-539 = test system: SF-539
PC-3 = test system: PC-3
HCT-15 = test system: HCT-15
CCRF-CEM = test system: CCRF-CEM

Row | SMILES | GI50 (EKVX) | GI50 (MDA-MB-435) | GI50 (ACHN) | GI50 (SN12C) | GI50 (HOP-62) | GI50 (COLO 205) | GI50 (A549) | GI50 (OVCAR-8) | GI50 (K562) | GI50 (NCI-H522) | GI50 (DU-145) | GI50 (NCI-H460) | GI50 (CAKI-1) | GI50 (UO-31) | GI50 (RPMI-8226) | GI50 (MCF7) | GI50 (SF-539) | GI50 (PC-3) | GI50 (HCT-15) [µM] | GI50 (CCRF-CEM)
1 | O=C(Nc1ccc2oc(=O)c(C(=O)O)cc2c1)Oc1ccccc1 | > 100 µM (inactive) | > 100 µM (inactive) | > 100 µM (inactive) | > 100 µM (inactive) | > 100 µM (inactive) | > 100 µM (inactive) | > 100 µM (inactive) | > 100 µM (inactive) | > 100 µM (inactive) | > 100 µM (inactive) | > 100 µM (inactive) | > 100 µM (inactive) | > 100 µM (inactive) | > 100 µM (inactive) | > 100 µM (inactive) | > 100 µM (inactive) | > 100 µM (inactive) | > 100 µM (inactive) | > 100 | –
2 | CC1(C)CN=C(Nc2ccc(F)c(Cl)c2)S1 | > 100 µM (inactive) | > 100 µM (inactive) | > 100 µM (inactive) | > 100 µM (inactive) | > 100 µM (inactive) | > 100 µM (inactive) | > 100 µM (inactive) | > 100 µM (inactive) | > 100 µM (inactive) | > 100 µM (inactive) | > 100 µM (inactive) | – | > 100 µM (inactive) | > 100 µM (inactive) | > 100 µM (inactive) | > 100 µM (inactive) | > 100 µM (inactive) | > 100 µM (inactive) | > 100 | > 100 µM (inactive)
3 | Nc1nnc2oc3ccc4ccccc4c3cc1-2 | 33.2 µM (inactive) | 24.3 µM (inactive) | 20 µM (inactive) | 22.9 µM (inactive) | > 100 µM (inactive) | 23.6 µM (inactive) | 47.3 µM (inactive) | 32.4 µM (inactive) | 37.5 µM (inactive) | 24.4 µM (inactive) | 56.5 µM (inactive) | 27 µM (inactive) | 48.8 µM (inactive) | 32 µM (inactive) | 30.5 µM (inactive) | 28 µM (inactive) | – | 32.7 µM (inactive) | 28 | 24.5 µM (inactive)
4 | CC/C(Cl)=N\OC(=O)Nc1ccc(OC)cc1 | 5.9 µM (inactive) | 8.04 µM (inactive) | 1.92 µM (inactive) | 6.55 µM (inactive) | 16.5 µM (inactive) | 2.11 µM (inactive) | 17.2 µM (inactive) | 15 µM (inactive) | 1.98 µM (inactive) | 0.847 µM (active) | 17.3 µM (inactive) | 20.2 µM (inactive) | 1.65 µM (inactive) | 7.94 µM (inactive) | 1.9 µM (inactive) | 5.77 µM (inactive) | 4.89 µM (inactive) | 15.9 µM (inactive) | 1.6 | 1.75 µM (inactive)
5 | CCOC(=O)C1(C#N)OC(=O)c2cnccc21 (stereo not drawn) | > 100 µM (inactive) | > 100 µM (inactive) | 58.6 µM (inactive) | > 100 µM (inactive) | – | > 100 µM (inactive) | > 100 µM (inactive) | > 100 µM (inactive) | > 100 µM (inactive) | > 100 µM (inactive) | > 100 µM (inactive) | > 100 µM (inactive) | > 100 µM (inactive) | > 100 µM (inactive) | > 100 µM (inactive) | > 100 µM (inactive) | > 100 µM (inactive) | > 100 µM (inactive) | > 100 | > 100 µM (inactive)
6 | Cc1sccc1C(=S)Nc1ccc(Cl)c(/C=N/OC(C)(C)C)c1 | 15.8 µM (inactive) | 21.7 µM (inactive) | – | 12.5 µM (inactive) | 16 µM (inactive) | 13.9 µM (inactive) | 20.2 µM (inactive) | 17.1 µM (inactive) | – | 12 µM (inactive) | 14.6 µM (inactive) | – | 12 µM (inactive) | 12.5 µM (inactive) | 7.31 µM (inactive) | 11.8 µM (inactive) | 31.5 µM (inactive) | 15.4 µM (inactive) | 15 | 21.3 µM (inactive)
7 | CC1=NN(c2ccc(S(=O)(=O)O)cc2)C(=O)/C1=C/c1ccc(Cl)cc1.c1ccncc1 | > 100 µM (inactive) | > 100 µM (inactive) | > 100 µM (inactive) | > 100 µM (inactive) | > 100 µM (inactive) | > 100 µM (inactive) | > 100 µM (inactive) | > 100 µM (inactive) | > 100 µM (inactive) | > 100 µM (inactive) | > 100 µM (inactive) | > 100 µM (inactive) | > 100 µM (inactive) | > 100 µM (inactive) | > 100 µM (inactive) | > 100 µM (inactive) | > 100 µM (inactive) | > 100 µM (inactive) | > 100 | > 100 µM (inactive)
